Measured values: publication PMC5088049 (Pharmacogenetics and genomics, 2016)

Key:
AKR1C2 Phe46Tyr [1] = molecular target: T1, AKR1C2 Phe46Tyr (Homo sapiens, UniProt P52895, F46Y); details: relative to wildtype AKR1C2; cited from earlier work
T1 sequence (P52895 1-323 F46Y): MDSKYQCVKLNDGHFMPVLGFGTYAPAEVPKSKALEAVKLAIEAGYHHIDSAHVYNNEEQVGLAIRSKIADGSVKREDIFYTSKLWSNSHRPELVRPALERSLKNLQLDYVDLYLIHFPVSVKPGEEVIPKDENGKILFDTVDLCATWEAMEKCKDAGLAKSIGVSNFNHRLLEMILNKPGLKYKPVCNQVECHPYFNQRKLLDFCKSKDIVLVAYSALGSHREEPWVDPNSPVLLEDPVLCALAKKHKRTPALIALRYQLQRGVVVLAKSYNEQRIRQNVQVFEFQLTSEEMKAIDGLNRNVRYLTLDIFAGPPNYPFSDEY

AKR1C2 Phe46Tyr [2] = molecular target: T1, AKR1C2 Phe46Tyr; details: cited from earlier work
[3] = cited from earlier work
aromatase [4] = molecular target: T2, aromatase (Homo sapiens, UniProt P11511); details: aromatase-mediated estrogen formation; cited from earlier work
T2 sequence (P11511 1-503): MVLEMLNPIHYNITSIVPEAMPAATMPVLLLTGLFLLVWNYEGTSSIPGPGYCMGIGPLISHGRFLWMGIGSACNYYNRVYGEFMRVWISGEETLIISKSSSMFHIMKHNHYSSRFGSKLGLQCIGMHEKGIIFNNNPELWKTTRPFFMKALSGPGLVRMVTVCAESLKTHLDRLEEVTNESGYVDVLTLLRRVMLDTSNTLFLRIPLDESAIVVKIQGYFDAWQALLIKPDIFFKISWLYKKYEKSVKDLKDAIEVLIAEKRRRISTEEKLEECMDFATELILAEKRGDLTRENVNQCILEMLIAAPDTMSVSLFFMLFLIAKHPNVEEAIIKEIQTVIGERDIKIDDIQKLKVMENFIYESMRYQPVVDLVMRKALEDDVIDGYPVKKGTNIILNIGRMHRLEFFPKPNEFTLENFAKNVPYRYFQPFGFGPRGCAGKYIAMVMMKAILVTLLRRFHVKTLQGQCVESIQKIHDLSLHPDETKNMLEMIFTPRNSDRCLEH

aromatase [5] = molecular target: T2, aromatase; assay: Inhibition of aromatase-mediated estrogen formation; assay type: biochemical; details: unpublished observations
not read = substrate: C=C1C[C@@H]2[C@H](CC[C@]3(C)C(=O)CC[C@@H]23)[C@@]2(C)C=CC(=O)C=C12; assay: not read; details: other: AKR1C2 Phe46Tyr (rs2854482); 17β-DHE formation; 37.0 °C

OC1Cc2cccc3cccc1c23 (stereo not shown) [1-acenaphthenol]
decrease in overall AKR1C2 activity by Phe46Tyr substitution (AKR1C2 Phe46Tyr [1]): approximately 30%

C[C@]12CCC(=O)C[C@@H]1CC[C@@H]1[C@@H]2CC[C@]2(C)[C@@H](O)CC[C@@H]12 [5α-DHT]
decrease in VMAX for reduction relative to wildtype enzyme (AKR1C2 Phe46Tyr [2]): 40%

C=C1C[C@H]2[C@@H]3CC[C@H](O)[C@@]3(C)CC[C@@H]2[C@@]2(C)C=CC(=O)C=C12 [17β-DHE, 17β-dihydroexemestane]
17β-DHE concentration relative to parent drug in plasma ([3]; healthy individuals taking EXE): 35–40% | variation of amount of 17β-DHE relative to EXE in human plasma ([3]; pool of three participants): five-fold | aromatase inhibition potency (aromatase [4]): potency similar to its parent compound EXE

C=C1C[C@H]2[C@@H]3CC[C@@H](O)[C@@]3(C)CC[C@@H]2[C@@]2(C)C=CC(=O)C=C12 [17α-DHE, 17α-dihydroexemestane]
aromatase-inhibiting properties (aromatase [5]): no appreciable aromatase-inhibiting properties

B1: AKR1C2 Phe46Tyr (Homo sapiens; F46Y) (protein)
chain: MDSKYQCVKLNDGHFMPVLGFGTYAPAEVPKSKALEAVKLAIEAGYHHIDSAHVYNNEEQVGLAIRSKIADGSVKREDIFYTSKLWSNSHRPELVRPALERSLKNLQLDYVDLYLIHFPVSVKPGEEVIPKDENGKILFDTVDLCATWEAMEKCKDAGLAKSIGVSNFNHRLLEMILNKPGLKYKPVCNQVECHPYFNQRKLLDFCKSKDIVLVAYSALGSHREEPWVDPNSPVLLEDPVLCALAKKHKRTPALIALRYQLQRGVVVLAKSYNEQRIRQNVQVFEFQLTSEEMKAIDGLNRNVRYLTLDIFAGPPNYPFSDEY
Km (not read): 13.5 ± 2.8 µM
